Reference: patent US4728649A, “3-oxo-piperazin-1-yl-ergolines exhibiting antidopaminergic activity” (Farmitalia Carlo Erba, priority 1985, dated 1988)

Tests used:
[1] = tested on: central apomorphine-induced climbing; test: Antagonism to central apomorphine-induced climbing (stereotypes) in mice; assay type: in vivo; details: Mus musculus, po; male mice; 60 minutes before 1 mg/kg s.c. apomorphine HCl; evaluated 10 minutes after apomorphine
From the text: (§1) Profiles of the central sedative pharmacological activity were obtained by Irwin's observational assessment of mouse behavior (Irwin, S.--Psychopharmacologia, Berl., 13, 222, 1968), which also gives an indication of the orientative acute toxicity after 7 days observation, and by antagonism to the central apomorphine-induced stereotypes (climbing) in mice.
For the antagonism to central apomorphine-induced climbing (Protais, P. et al.--Psychopharmacology, 50, 1, 1976), the compounds were orally administered to male mice, in a dose range between 0.25 and 10 mg/kg, 60 minutes before the subcutaneous injection of 1 mg/kg of apomorphine HCl. The antagonism to apormorphine-induced climbing behavior was evaluated 10 minutes after apomorphine administration.

[2] = Orientative acute toxicity (Irwin's observational assessment of mouse behavior, 7 days observation); details: in vivo, po, after 7 days observation
From the text: as §1

SMILES | ED50 [1] [mg/kg] | LD50 at 168 h [2] [mg/kg]
CN1C[C@H](CN2CC(=O)NC(=O)C2)C[C@@H]2c3cccc4[nH]cc(c34)C[C@H]21 [Example 1, 6-Methyl-8β-(3,5-dioxo-piperazin-1-ylmethyl)-ergoline] | 4.4 | 600
CN1C[C@H](CN2CC(=O)NC(=O)C2)C[C@@H]2c3cccc4c3c(cn4C)C[C@H]21 [Example 2, 1,6-Dimethyl-8β-(3,5-dioxo-piperazin-1-ylmethyl)-ergoline] | 0.9 | 300
CN1C(=O)CN(C[C@@H]2C[C@@H]3c4cccc5[nH]cc(c45)C[C@H]3N(C)C2)CC1=O [Example 3, 6-Methyl-8β-(3,5-dioxo-4-methyl-piperazin-1-ylmethyl)-ergoline] | 2.2 | 300
CN1C[C@H](CN2CC(=O)NC(=O)C2)C=C2c3cccc4[nH]cc(c34)C[C@H]21 [Example 5, 6-Methyl-9,10-didehydro-8β-(3,5-dioxo-piperazin-1-ylmethyl)-ergoline] | 0.5 | 200
